In patent US20220364056A1, “SHORT-CHAIN FATTY ACID PENTANOATE AS ENHANCER FOR CELLULAR THERAPY AND ANTI-TUMOR THERAPY” (PHILIPPS-UNIVERSITÄT MARBURG, priority 2019, published 2022):

Key:
HDAC = assay: fluorogenic HDAC assay on CTL-derived cell lysates; type: biochemical, murine; conditions: unstimulated CTLs set to 1.0
Description: (A) Experimental design for the treatment of CTLs with the water-soluble fraction of intestinal content derived from SPF or GF mice. (B and C) Frequencies of IFN-γ- and TNF-α-producing CTLs treated with the extract from luminal content derived from indicated organs. Representative results of two experiments are shown (n=3). (D) ELISA was performed to measure the secretion of TNF-α by CLTs treated as shown in (A). (E) Quantitative measurement of total SCFA amounts in fecal samples of SPF and GF mice (n=5). (F and G) The percentage of IFN-γ^+ TNF-α^+ CTLs treated with the indicated SCFAs for three days (n=3, one of three independent experiments is shown). (H) The secretion of TNF-α from CTLs treated with SCFAs was determined by ELISA (n=3, one of two independent experiments is shown). (I) The fluorogenic HDAC assay was applied to measure the HDAC inhibitory activity of SCFAs on CTLs. The value for unstimulated CTLs was arbitrarily set to 1.0. Four independent experiments were performed. (J and K) Representative contour plots (J) and bar graphs (K) showing the frequency of IFN-γ+ and TNF-α+ cells after pentanoate (2 mM) or VPA (0.5 mM) administration. Three similar experiments were performed. (L and M) The frequency of Eomes- and T-bet-expressing CTLs treated with pentanoate (2 mM) or VPA (0.5 mM) for three days was analyzed by flow cytometry (n=4). […]

histones H3 and H4 = assay: Western blot of H3Ac and H4Ac in CD8+ T cells; type: cell-based, murine; conditions: SCFAs for 3 days
Description: Representative histogram plots (A) and bar graphs (B) are showing the frequency of Annexin V^+ cells. Three similar experiments were performed. (C) Representative effector molecule staining of CD8^+ T cells polarized under suboptimal CTL-inducing conditions, treated with pentanoate or TSA (10 nM Sigma-Aldrich) in presence of 2-DG (1 mM, Sigma-Aldrich) or rapamycin (100 nM, Sigma-Aldrich) for 3 days. Three independent experiments were performed. (D) Western blot analysis of H3Ac and H4Ac in CD8^+ T cells treated with SCFAs for 3 days. (E) Pan-H4Ac ChIP qPCR analysis for Tbx21 promoter accessibility in pentanoate-treated CTLs. Data are from pooled chromatin of three mice. (F and G) CD8^+ T cells isolated from WT and Tbx21^−/− mice were polarized under suboptimal CTL-inducing conditions in presence of increasing pentanoate concentrations. Representative contour plots (F) and bar graphs (G) show the frequency of IFN-γ+ and IL-17A^+ cells. Two similar experiments were performed.

mTOR = assay: phosphorylation of mTOR and S6 in human CTLs; type: cell-based; conditions: three days
Description: (A and B) CTLs were cultured in medium containing 1.0% FCS and treated with pentanoate (2.5 mM) for three days. Representative histogram plots and bar graphs indicate the phoshorylated levels of mTOR (A) and S6 ribosomal protein (B), respectively (n=3 pooled from three independent experiments). (C and D) Human CTLs were cultured in medium containing 1.0% serum and treated with indicated HDACi for three days. Representative histogram plots and bar graphs indicate the phoshorylated levels of mTOR (C) and S6 ribosomal protein (D), respectively (data points represent four individual healthy donors) (E) Measurement of extracellular acidification rate (ECAR) for in vitro generated murine CTLs cultured with or without 2.5 mM pentanoate for three days. ECAR was measured under basal conditions and in response to glucose (10 mM), oligomycin (2 μM), and 2-deoxy-glucose (2-DG, 100 mM). One of three independent experiments is shown.

human CD8+ T lymphocytes = human CD8+ T lymphocytes differentiated into CTLs, flow cytometry; type: cell-based; conditions: healthy donors
Description: (A and B) CD8^+ T cells isolated from spleens and LNs were polarized under Tc17-inducing conditions and treated with pentanoate for 3 days. Representative contour plots (A) and bar graphs (B) indicate the frequency of IL-17^+ and IFN-γ+ cells. Three similar experiments were performed. (C and D) CD8^+ T cells isolated from spleens and LNs were polarized under Tc9-inducing conditions and treated with pentanoate for 3 days. Representative contour plots (C) and bar graphs (D) are showing the frequency of IL-9^+ and IFN-γ+ cells. Three similar experiments were performed. (E and F) The expression of granzyme B, IFN-γ and Eomes in pentanoate-treated human CTLs was analysed by flow cytometry. Five independent experiments were performed (E). For Eomes, mean fluorescence intensity (MFI) values are shown (F, n=3).
(A) CD8^+ T cells isolated from peripheral blood of healthy donors were differentiated into CTLs in presence or absence of indicated HDACi. Representative contour plots and dot plots indicate the frequency of TNF-α+ and IFN-γ^+ cells. Data points in the graphs represent individual donors (n=4, performed in 4 independent experiments) (B-G) Phenotyping of pentanoate-treated ROR1-specific CD8^+ CAR T cells (CARROR1 T cells). (B) Experimental setup for the functional analysis is shown. (C) The cytokine secretion (IFN-γ and TNF-α) was analysed in supernatants of pentanoate-treated CARROR1 T cells by ELISA. (D) The surface expression of CD25 was measured by flow cytometry. (E) The secretion of IL-2 was detected in supernatants of CARROR1 T cells by ELISA. (F) Proliferation of CARROR1 T cells was determined by CFSE labelling. CARROR1 T cells pre-treated with pentanoate were stained with CFSE and subsequently co-cultured with […] cells in the absence of pentanoate. CD8^+ T cells without the CAR construct were used as mock control cells. […] The percentage of lysed target cells was determined in 1 hour intervals (effector-to-target cell (E:T) ratio=2.5:1). […]

[1] = tested on: CD8+ cytotoxic T lymphocytes (CTLs); assay: murine CTLs cultivated under suboptimal conditions with SCFAs; cytokines and effector molecules by flow cytometry and ELISA; type: cell-based
From the text: It is known that the glycolytic metabolic pathway promotes IFN-γ expression and T cell effector function. […] We next investigated if acetylation of H4 was increased at CTL-characteristic loci (Ifnγ, Tbx21 and Eomes) after treatment of CTLs with pentanoate. […] Due to the high level of heterogeneity and plasticity within T lymphocytes, we next investigated possible effects of pentanoate on other CD8^+ T cell subtypes. […] To gain further insight into possible therapeutic strategies, we next investigated the impact of pentanoate on human CD8^+ T lymphocytes.
(A) Experimental design for the treatment of CTLs with the water-soluble fraction of intestinal content derived from SPF or GF mice. (B and C) Frequencies of IFN-γ- and TNF-α-producing CTLs treated with the extract from luminal content derived from indicated organs. Representative results of two experiments are shown (n=3). (D) ELISA was performed to measure the secretion of TNF-α by CLTs treated as shown in (A). (E) Quantitative measurement of total SCFA amounts in fecal samples of SPF and GF mice (n=5). (F and G) The percentage of IFN-γ^+ TNF-α^+ CTLs treated with the indicated SCFAs for three days (n=3, one of three independent experiments is shown). (H) The secretion of TNF-α from CTLs treated with SCFAs was determined by ELISA (n=3, one of two independent experiments is shown). (I) The fluorogenic HDAC assay was applied to measure the HDAC inhibitory activity of SCFAs on CTLs. The value for unstimulated CTLs was arbitrarily set to 1.0. Four independent experiments were performed. (J and K) Representative contour plots (J) and bar graphs (K) showing the frequency of IFN-γ+ and TNF-α+ cells after pentanoate (2 mM) or VPA (0.5 mM) administration. Three similar experiments were performed. (L and M) The frequency of Eomes- and T-bet-expressing CTLs treated with pentanoate (2 mM) or VPA (0.5 mM) for three days was analyzed by flow cytometry (n=4). (N) ChIP assay showing the acetylation of histone H4 at the promoter regions of Ifnγ and Eomes genes after 24 hours of treatment of CTLs with pentanoate. Data are from pooled chromatin of three mice.
Representative histogram plots (A) and bar graphs (B) are showing the frequency of Annexin V^+ cells. Three similar experiments were performed. (C) Representative effector molecule staining of CD8^+ T cells polarized under suboptimal CTL-inducing conditions, treated with pentanoate or TSA (10 nM Sigma-Aldrich) in presence of 2-DG (1 mM, Sigma-Aldrich) or rapamycin (100 nM, Sigma-Aldrich) for 3 days. Three independent experiments were performed. (D) Western blot analysis of H3Ac and H4Ac in CD8^+ T cells treated with SCFAs for 3 days. (E) Pan-H4Ac ChIP qPCR analysis for Tbx21 promoter accessibility in pentanoate-treated CTLs. Data are from pooled chromatin of three mice. (F and G) CD8^+ T cells isolated from WT and Tbx21^−/− mice were polarized under suboptimal CTL-inducing conditions in presence of increasing pentanoate concentrations. Representative contour plots (F) and bar graphs (G) show the frequency of IFN-γ+ and IL-17A^+ cells. Two similar experiments were performed. […]

class I HDAC isoforms = assay: HDAC inhibition of recombinant class I HDAC isoforms; type: biochemical; conditions: cell-free supernatants vs YCFA medium; TSA as control
[2] = tested on: class II HDACs (HDAC4, HDAC5, HDAC6 and HDAC9); assay: HDAC inhibition of recombinant class II HDAC isoforms; type: biochemical
Description: (A) The production of SCFAs, branched-chain fatty acids (BCFAs) and medium-chain fatty acids (MCFAs) by 16 human commensals was measured by GC-MS. All bacteria were grown in vitro until stationary growth phase before the measurement of fatty acids in supernatants. (B and C) HDAC inhibition of recombinant class I and class II HDAC isoforms by cell-free supernatants derived from 16 members of human commensal community. Significance was tested against YCFA medium. (D) Impact of bacterial SCFAs, BCFAs and MSCFAs on the activity of class I and II HDAC enzymes. TSA was used as a control pan-HDAC inhibitor.

CCC(=O)O [propionate, reference compound] was tested, and the “HDAC activity of CTL-derived cell lysates” value (HDAC) was “strong reduction of HDAC activity” and the “acetylation of histones H3 and H4” value (histones H3 and H4) was “increased acetylation”.

In the case of CC(C)(CNC(=O)c1cccc(-c2noc(C(F)(F)F)n2)c1)c1coc(-c2ccccc2)n1 [TMP-195, reference compound], the “phosphorylation level of S6 ribosomal protein” value (mTOR) was “neither mocetinostat (HDAC class I inhibitor MGCD0103) nor TMP 195 (HDAC class II inhibitor) had a significant effect”.

Nc1ccccc1NC(=O)c1ccc(CNc2nccc(-c3cccnc3)n2)cc1 [mocetinostat, reference compound] was tested, and the “expression of TNF-α and IFN-γ” value (human CD8+ T lymphocytes) was “promoted the similar effects” and the “phosphorylation level of S6 ribosomal protein” value (mTOR) was “neither mocetinostat (HDAC class I inhibitor MGCD0103) nor TMP 195 (HDAC class II inhibitor) had a significant effect”.

O=CC[C@@H](O)[C@H](O)[C@H](O)CO [2-DG, 2-deoxyglucose, reference compound] was tested, and the “IFN-γ production in CTLs” value ([1]; 2-DG 1 mM or rapamycin 100 nM, 3 days) was “reduction”.

With CC(/C=C/C(=O)NO)=C\[C@@H](C)C(=O)c1ccc(N(C)C)cc1 [TSA, trichostatin A, reference compound] the “activity of class I HDAC isoforms” value (class I HDAC isoforms) was “inhibited”, the “reversal of the effect on granzyme B+IFN-γ+ cells by rapamycin” value ([1]; rapamycin 100 nM co-treatment) was “could not be reversed” and the “percentages of granzyme B+IFN-γ+ CD8+ T cells” value ([1]; vs control CTLs, TSA 10 nM, 3 days) was “substantially enhanced”. The “activity of class II HDACs” value [2] was “inhibited”.
